Oligonucleotides are written 5' to 3', each unit as a sugar letter and its base; * is a phosphorothioate linkage, no mark a phosphodiester; rarer units and linkages stand in square brackets, end groups in braces. Plain capitals give the bases only. d = 2'-deoxy (DNA); r = 2'-OH (RNA)
The substances below were run against UBE2B (assay: reporter assay of Huesken 2005). Details: siRNA.
Note: test concentration or dose not given here.

| Substance | normalised inhibition (eCFP-eYFP dual reporter) |
| --- | --- |
| sense rArUrGrCrArGrUrUrArUrArUrUrUrGrGrArCrCdTdT / antisense rGrGrUrCrCrArArArUrArUrArArCrUrGrCrArUdTdC | 53.2% |
| sense rArUrGrGrUrArGrCrArUrArUrGrUrUrUrArGrAdTdT / antisense rUrCrUrArArArCrArUrArUrGrCrUrArCrCrArUdCdA | 69.4% |
| sense rArUrGrUrUrUrArGrArUrArUrCrCrUrUrCrArGdTdT / antisense rCrUrGrArArGrGrArUrArUrCrUrArArArCrArUdAdT | 46.7% |
| sense rArUrUrUrCrArArGrCrGrGrUrUrArCrArArGrAdTdT / antisense rUrCrUrUrGrUrArArCrCrGrCrUrUrGrArArArUdCdC | 78.2% |
| sense rArUrUrUrUrCrUrGrArArGrArArUrArUrCrCrAdTdT / antisense rUrGrGrArUrArUrUrCrUrUrCrArGrArArArArUdTdC | 63.7% |
| sense rCrArArArUrGrUrGrUrArUrGrCrUrGrArUrGrGdTdT / antisense rCrCrArUrCrArGrCrArUrArCrArCrArUrUrUrGdGdA | 62.6% |
| sense rCrArGrArArUrCrGrArUrGrGrArGrUrCrCrArAdTdT / antisense rUrUrGrGrArCrUrCrCrArUrCrGrArUrUrCrUrGdAdA | 86.3% |
| sense rCrArGrCrArCrArGrCrUrUrUrArUrCrArGrGrAdTdT / antisense rUrCrCrUrGrArUrArArArGrCrUrGrUrGrCrUrGdCdC | 77.5% |
| sense rCrArGrGrArArArArCrArArArCrGrArGrArArUdTdT / antisense rArUrUrCrUrCrGrUrUrUrGrUrUrUrUrCrCrUrGdAdT | 84% |
| sense rCrArGrGrCrArGrCrArCrArGrCrUrUrUrArUrCdTdT / antisense rGrArUrArArArGrCrUrGrUrGrCrUrGrCrCrUrGdGdC | 75.1% |
| sense rCrArGrUrGrGrArArUrGrCrArGrUrUrArUrArUdTdT / antisense rArUrArUrArArCrUrGrCrArUrUrCrCrArCrUrGdCdA | 83.5% |
| sense rCrArGrUrGrGrCrGrCrArCrCrArUrCrUrGrArAdTdT / antisense rUrUrCrArGrArUrGrGrUrGrCrGrCrCrArCrUrGdAdC | 61.8% |
| sense rCrArUrArUrGrArUrGrUrArUrCrUrUrCrUrArUdTdT / antisense rArUrArGrArArGrArUrArCrArUrCrArUrArUrGdTdT | 83.9% |
| sense rCrCrArArArArUrGrUrUrUrCrArUrCrCrArArAdTdT / antisense rUrUrUrGrGrArUrGrArArArCrArUrUrUrUrGrGdAdT | 84.6% |
| sense rCrCrArCrCrArArCrUrGrUrUrArGrGrUrUrUrUdTdT / antisense rArArArArCrCrUrArArCrArGrUrUrGrGrUrGrGdTdT | 69.7% |
| sense rCrGrArGrArArUrArUrGrArGrArArArArGrArGdTdT / antisense rCrUrCrUrUrUrUrCrUrCrArUrArUrUrCrUrCrGdTdT | 73.5% |
| sense rCrGrGrCrCrArUrUrGrUrUrGrArArCrArArArGdTdT / antisense rCrUrUrUrGrUrUrCrArArCrArArUrGrGrCrCrGdAdA | 76.5% |
| sense rCrGrGrGrArUrUrUrCrArArGrCrGrGrUrUrArCdTdT / antisense rGrUrArArCrCrGrCrUrUrGrArArArUrCrCrCrGdCdA | 85.1% |

Each substance was assayed against UBE2E3 (assay: reporter assay of Huesken 2005). Details: siRNA.

| Substance | normalised inhibition (eCFP-eYFP dual reporter) |
| --- | --- |
| sense rUrGrArArUrGrGrArGrArUrCrArArCrUrArUrAdTdT / antisense rUrArUrArGrUrUrGrArUrCrUrCrCrArUrUrCrAdTdA | 90.5% |
| sense rUrGrCrGrGrArUrCrCrUrCrUrGrGrUrUrGrGrAdTdT / antisense rUrCrCrArArCrCrArGrArGrGrArUrCrCrGrCrAdGdG | 75.8% |
| sense rUrGrCrUrArArGrUrUrArUrCrCrArCrUrArGrUdTdT / antisense rArCrUrArGrUrGrGrArUrArArCrUrUrArGrCrAdGdT | 82.8% |
| sense rUrGrCrUrGrUrCrUrArUrUrUrGrUrUrCrCrCrUdTdT / antisense rArGrGrGrArArCrArArArUrArGrArCrArGrCrAdAdA | 73.4% |
| sense rUrGrUrCrUrArUrUrUrGrUrUrCrCrCrUrUrUrUdTdT / antisense rArArArArGrGrGrArArCrArArArUrArGrArCrAdGdC | 86% |
| sense rUrUrArUrCrCrArUrUrUrArArGrCrCrArCrCrAdTdT / antisense rUrGrGrUrGrGrCrUrUrArArArUrGrGrArUrArAdTdC | 28.7% |
| sense rUrUrCrCrGrCrArCrCrArGrArArUrCrUrArUrCdTdT / antisense rGrArUrArGrArUrUrCrUrGrGrUrGrCrGrGrArAdAdG | 42.5% |
| sense rUrUrUrUrGrArCrArGrArCrUrGrCrArArCrCrCdTdT / antisense rGrGrGrUrUrGrCrArGrUrCrUrGrUrCrArArArAdGdG | 50.3% |

Reference: the OligoGym collection
